Four molecules from patent US20210008161A1, “METHODS AND COMPOSITIONS FOR IMPROVED HOMOLOGY DIRECTED REPAIR” (CRISPR THERAPEUTICS AG, priority 2019, published 2021) can be followed below.

Common to all, as to assay type: cell-based, human
Experiment [1] has as its system HEK293 T cells. Nature of the experiment: BFP to GFP fluorescent reporter assay of HDR efficiency (AAVS1 locus). The protocol: An in vitro assay was conducted to determine the ability of various inhibitors and enhancers to improve the efficiency of HDR repair in HEK293 T cells. Specifically, a fluorescent reporter-based screening approach was developed to identify molecules that enhance gene-editing by HDR. A reporter system was generated in HEK293 T cells comprising a genomic AAVS1 locus that encoded either a blue fluorescent protein (BFP) or a green fluorescent protein (GFP) within the AAVS1 locus. A gene encoding BFP can be converted to a gene encoding GFP by substitution of cytosine at position 199 to uridine (e.g., a C to U transition at position 199). By introducing a DSB within the BFP gene using a CRISPR/Cas9 gene-editing system, a homology donor DNA encoding the nucleotide substitution can be used to edit the BFP gene to a GFP gene by HDR repair. Thus, a gene edit that induces a C to U transition at position 199 results in a change in cellular fluorescence. A change in the fluorescence of the cell measured by flow cytometry can be used to quantify efficiency of HDR repair. Additionally, the reverse gene edit can be performed for an AAVS1 locus encoding a GFP gene, wherein a GFP can be converted to BFP by substitution of uridine at position 199 to cytosine.
To create the reporter system, an AAV-based homology donor DNA encoding either BFP or GFP was created. The AAV-BFP or AAV-GFP donor was flanked by homology arms that were 1000 base pairs in length and expression of BFP or GFP was driven by the MND promoter (e.g., a synthetic promoter that contains the U3 region of a modified Moloney murine leukemia virus long term terminal repeat with myeloproliferative sarcoma virus enhancer and deleted negative control region, SEQ ID NO: 58). The viral DNA was packaged into capsids of adeno-associated virus serotype 6 (AAV6) vector. Either the BFP or GFP donor was introduced using the AAV6 vector into the AAVS1 locus in HEK293 T cells by homologous recombination using CRISPR-Cas9 as follows: purified Cas9 protein was complexed with two different single gRNAs (sgRNAs) targeting the AAVS1 locus at SEQ ID NO: 3 (spacer sequence identified by SEQ ID NO: 4; gRNA obtained from Maxcyte) or SEQ ID NO: 5 (spacer sequence identified by SEQ ID NO: 6; gRNA obtained from Thermo Fisher). Cas9 protein used in the Exemplary section provided herein refers to Cas9 polypeptide derived from S. pyogenes (SpCas9), unless indicated otherwise.
The Cas9-sgRNA complex was electroporated into the HEK293 T cells using the Lonza Nucleofector program CM-130. Approximately, 2 hours after electroporation, the cells were infected with various viral doses of AAV6 encoding a BFP (SEQ ID NO: 44) or GFP homology donor (SEQ ID NO: 47). One week later, cells were analyzed by flow cytometry to verify integration and expression of BFP or GFP in the AAVS1 locus. HEK293 T cells expressing BFP or GFP were sorted into single cells in 96-well plates. After ˜2 weeks of growth, DNA extracted from individual cells was analyzed for precise integration of the respective BFP or GFP gene into the AAVS1 locus by long-range PCR. This PCR analysis allowed for determination of whether the BFP/GFP gene was integrated in one or both alleles of the AAVS1 locus.
To introduce a gene edit that converts BFP to GFP, cells were electroporated with ribonucleoprotein (RNP) comprised of Cas9 and sgRNA that targets the BFP gene encoded in the AAVS1 locus. The sgRNA targeted a sequence in the BFP gene identified by SEQ ID NO: 7 (sgRNA spacer sequence identified by SEQ ID NO: 8). The sgRNA were prepared using a standard sgRNA cassette specific to SpCas9, as indicated by SEQ ID NO: 2 (wherein a, c, g, u represent 2′ O-methyl phosphorothioate nucleotides; s represents phosphorothioate nucleotides; and A, C, G, U, N represent canonical RNA nucleotides). The gRNAs used in the Exemplary section provided herein were sgRNAs prepared with the SpCas9 sgRNA cassette unless indicated otherwise. […]

In experiment [2] the test system is HEK293 T cells. Nature of the experiment: Indel formation at GFP gene in AAVS1 locus by TIDE analysis. To be noted: regardless of ssODN or gRNA, compared to DMSO control, FIG. 2C-2D. The protocol:
The effect of DNA PK inhibition by Nu7441 correction of a DSB by the NHEJ pathway (e.g., introduce an indel at the DSB site) or HDR pathway (e.g., introduce a gene mutation encoded by a homology donor at the DSB site) was assessed using the reporter system described in Example 1. In this case gene-editing was evaluated in HEK293 T cells expressing GFP in the AAVS1 locus. To introduce a gene edit that converts GFP to BFP, cells were electroporated with ribonucleoprotein (RNP) comprised of Cas9 and gRNA1 (GFP target sequence identified by SEQ ID NO: 9; sgRNA spacer sequence identified by SEQ ID NO: 10) or gRNA2 (GFP target sequence identified by SEQ ID NO: 11; sgRNA spacer identified by SEQ ID NO: 12) that targets the GFP gene encoded in the AAVS1 locus. The cells were also transfected with ssODNs that encoded the gene correction necessary to convert GFP to BFP and homology arms complimentary to the sequence upstream and downstream of the target gene cut site. The efficiency of HDR repair was determined by measuring the level of cell BFP fluorescence. The efficiency of cutting (indel information) was monitored by TIDE analysis.
Shown in FIGS. 2C-2D is a measure of indel formation performed by TIDE analysis for the same edits that are described for FIGS. 2A-2B. […] Thus, the DNA PK inhibitor Nu7441 achieves reduced repair of a DSB by the NHEJ pathway when a homology donor is provided.

The subject of experiment [3] is HEK293 T cells. Put plainly: HDR gene-editing at GSD1a locus with ssODN homology donors. The conditions noted are these: for HDR efficiency: 1.25 μM SCR7 or 10 μM RS-1, FIG. 3. Here is the method:
2×10^5 cells were edited with 1 μM Cas9 and 1.5 μM gRNA. The cells were transfected with two different ssODNs homology donors: 93-50 (SEQ ID NO: 39) or 25-100 (SEQ ID NO: 40). These two ssODN donors contain homology arms spanning both sides of the double-stranded break induced by the Cas9-guide and facilitate correction of a point mutation in the G6PC gene sequence by HDR. Cells were edited with 100 μM ssODN. The cells were treated with 2.5 μM Nu7441, 1.25 μM SCR7, or 10 μM RS-1 and the effect on HDR efficiency was evaluated.

Setting [4] is: 1.25 μM SCR7 or 10 μM RS-1, ssODN1-4, relative to DMSO alone, FIG. 1A.

With `O=c1cc(N2CCOCC2)oc2c(-c3cccc4c3sc3ccccc34)cccc12` [Nu7441], the “fold higher HDR efficiency” value in experiment [1] (2.5 μM Nu7441, each of ssODN1-4, FIG. 1A) is “approximately 3 fold”. Further, the “fold higher HDR efficiency, high vs low concentration” value in experiment [1] (2.5 μM vs 0.6 μM, FIG. 1B, 1C) was “approximately 1.5 fold”. Further, the “HDR efficiency at higher concentrations” value in experiment [1] (concentrations higher than 2.5 μM) was “no further improvement”. For the same molecule, in experiment [1] (varied doses, FIG. 1B), the “improvement in HDR efficiency, dose dependence” value is “dose-dependent”. In experiment [2], the “indel formation at the DSB site” value is “decreased”. For the same molecule, the “fold increase in HDR efficiency” value in experiment [3] (2.5 μM Nu7441, over DMSO alone, FIG. 3) is recorded as “approximately 1.7 fold”.

In the case of `O=C(Nc1ccc(Br)cc1)c1ccc(Br)c(S(=O)(=O)NCc2ccccc2)c1` [RS-1], the values for the HDR efficiency entry in experiment [1] (setting [4]) and in experiment [3] were “no improvement” and “no effect”, respectively. For the same molecule, the “indel formation at the DSB site” value in experiment [2] is listed as “reduction”.

As for `O=c1[nH]c(=S)[nH]c(N=Cc2ccccc2)c1N=Cc1ccccc1` [SCR7], the results for the HDR efficiency entry in experiment [1] (setting [4]) and in experiment [3] were “no improvement” and “no effect”, respectively. The “indel formation at the DSB site” value in experiment [2] is given as “reduction”.

For “i53: polypeptide inhibitor of 53BP1 (SEQ ID NO: 70), introduced as an mRNA-encoded protein (ORF SEQ ID NO: 69)”, the HDR efficiency entry in experiment [1] (different doses of mRNA encoding i53, ssODN Hn-91-61 and Ht-39-88, FIG. 1D) is on record as “increased”.
